Data from patent US20110166121A1 (LG LIFE SCIENCES LTD., priority 2008, published 2011).

Experiments:
[1] = test system: Human platelet aggregation caused by ADP; assay: Inhibition of ADP-induced platelet aggregation (Mimic-human PRP); assay type: cell-based; conditions: 20 μM ADP, human platelet concentrate diluted with PPP, absorption at 595 nm
Procedure, shortened: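 Ki came from non-linear sigmoidal fits of inhibition, measured as the 3-min rise in absorbance at 595 nm after 20 μM ADP, relative to 0/20 μM ADP controls. Platelets (3–4×10^8/mL in PPP-diluted human PRP) were exposed to 0.01–30 μM compound for 20 min at room temperature beforehand.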

[2] = target: T1, Human P2Y12 receptor (Homo sapiens, UniProt Q9H244); assay: Human P2Y12 receptor cell membrane binding assay with [3H] 2-Mes-ADP; conditions: 1 nM [3H] 2-Mes-ADP, membranes of HEK cells expressing P2Y12 receptor; read-out: Binding activity (IC50)
T1 construct: expressed in transfected cells; host or cells: HEK cells
T1 sequence (Q9H244 whole entry): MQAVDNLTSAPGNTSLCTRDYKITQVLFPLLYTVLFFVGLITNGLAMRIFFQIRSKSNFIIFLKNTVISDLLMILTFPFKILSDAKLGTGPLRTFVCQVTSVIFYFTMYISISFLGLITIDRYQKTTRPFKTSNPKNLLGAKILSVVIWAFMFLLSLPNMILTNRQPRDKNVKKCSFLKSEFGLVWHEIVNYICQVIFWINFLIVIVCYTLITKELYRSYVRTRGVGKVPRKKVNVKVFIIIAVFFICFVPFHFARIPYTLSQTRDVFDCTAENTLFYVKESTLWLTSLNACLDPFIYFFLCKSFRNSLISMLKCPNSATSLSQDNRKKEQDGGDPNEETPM
Procedure, shortened: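 Competition binding used 1 nM [3H]2-MeS-ADP on P2Y12-expressing HEK cell membranes for 1 h at room temperature, followed by filtration and scintillation counting.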

Structure (SMILES) | Ki [1] [µM] | IC50 [2] [µM]
CCCc1cc2c(N3CCn4c(nnc4C(F)(F)F)C3)nc(OC3CCN(C)C3)nc2s1 (stereo not drawn) [Example 3-7, 7-[2-(1-Methyl-pyrrolidin-3-yloxy)-6-propyl-thieno[2,3-d]pyrimidin-4-yl]-3-trifluoromethyl-5,6,7,8-tetrahydro-[1,2,4]triazolo[4,3-a]pyrazine] | 0.3 | 0.54
CCCc1cc2c(N3CCn4c(nnc4C(F)(F)F)C3)nc(N3CC(=NO)C(N)C3)nc2s1 (stereo not drawn) [Example 1-116, 4-Amino-1-[6-propyl-4-(3-trifluoromethyl-5,6-dihydro-8H-[1,2,4]triazolo[4,3-a]pyrazin-7-yl)-thieno[2,3-d]pyrimidin-2-yl]-pyrrolidin-3-one oxime] | 0.028 | 0.07
CCCc1cc2c(N3CCn4c(nnc4C(F)(F)F)C3)nc(OCCO)nc2s1 [Example 3-3, 2-[6-Propyl-4-(3-trifluoromethyl-5,6-dihydro-8H-[1,2,4]triazolo[4,3-a]pyrazin-7-yl)-thieno[2,3-d]pyrimidin-2-yloxy]-ethanol] | 0.03 | 0.113
CCCc1cc2c(N3CCn4c(nnc4C(F)(F)F)C3)nc(N3CCN(C(=O)C(F)(F)F)CC3)nc2s1 [Example 1-82, 2,2,2-Trifluoro-1-{4-[6-propyl-4-(3-trifluoromethyl-5,6-dihydro-8H-[1,2,4]triazolo[4,3-a]pyrazin-7-yl)-thieno[2,3-d]pyrimidin-2-yl]-piperazin-1-yl}-ethanone] | > 4 | 14.3
CCCc1cc2c(N3CCn4c(nnc4C(F)(F)F)C3)nc(-c3nnn[nH]3)nc2s1 [Example 4-44, 7-[6-Propyl-2-(1H-tetrazol-5-yl)-thieno[2,3-d]pyrimidin-4-yl]-3-trifluoromethyl-5,6,7,8-tetrahydro-[1,2,4]triazolo[4,3-a]pyrazine] | > 4 | 1.6
CCCc1cc2c(N3CCn4c(nnc4C(F)(F)F)C3)nc(CC(N)=O)nc2s1 [Example 4-55, 2-[6-Propyl-4-(3-trifluoromethyl-5,6-dihydro-8H-[1,2,4]triazolo[4,3-a]pyrazin-7-yl)-thieno[2,3-d]pyrimidin-2-yl]-acetamide] | 0.0042 | 0.174
CCCc1cc2c(N3CCn4c(nnc4C(F)(F)F)C3)nc(C(N)=O)nc2s1 [Example 4-3, 6-Propyl-4-(3-trifluoromethyl-5,6-dihydro-8H-[1,2,4]triazolo[4,3-a]pyrazin-7-yl)-thieno[2,3-d]pyrimidine-2-carboxylic acid amide] | 0.12 | 0.63
CCCc1cc2c(N3CCn4c(nnc4C(F)(F)F)C3)nc(CO)nc2s1 [Example 4-19, [6-Propyl-4-(3-trifluoromethyl-5,6-dihydro-8H-[1,2,4]triazolo[4,3-a]pyrazin-7-yl)-thieno[2,3-d]pyrimidin-2-yl]methanol] | 0.25 | 0.5
CCCc1cc2c(N3CCn4c(nnc4C(F)(F)F)C3)nc(Oc3ccccc3C(=O)O)nc2s1 [Example 3-33, 2-[6-Propyl-4-(3-trifluoromethyl-5,6-dihydro-8H-[1,2,4]triazolo[4,3-a]pyrazin-7-yl)-thieno[2,3-d]pyrimidin-2-yloxy]-benzoic acid] | > 4 | 2.22
